Experimental data as given in US20240415819A1, “MACROCYCLIC COMPOUNDS AS PROTEASOME SUBUNIT BETA TYPE-5 INHIBITORS” (Lead Discovery Center GmbH, priority 2021, published 2024).

Assays:
[1] = molecular target: T1, β5 subunit of the human constitutive proteasome (CPS) (Homo sapiens, UniProt P28074); assay: β5 inhibition assay, human constitutive proteasome (Suc-LLVY-AMC); assay type: biochemical; settings: IC50 class, Suc-LLVY-AMC substrate
T1 construct: purchased Boston Biochem E-360
Description: The enzymatic activity of the β5 subunit of the human constitutive proteasome (CPS) is analyzed. In another assay, which differs from the assay of the human constitutive proteasome only in using the human immunoproteasome (IPS) the enzymatic activity of the β5 subunit of the human immunoproteasome (IPS) is analyzed. […] Inhibition is indicated as IC50 [nM] (“-”=not measured).

[2] = molecular target: T2, β5 subunit of the human immunoproteasome (IPS) (Homo sapiens, UniProt P28062); assay: β5 inhibition assay, human immunoproteasome (Suc-LLVY-AMC); assay type: biochemical; settings: IC50 class, Suc-LLVY-AMC substrate
T2 construct: purchased Boston Biochem E-370
In short: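 Human immunoproteasome (1 nM final) was preincubated 10 min at RT with compound in 100 mM HEPES pH 7.5, 50 mM NaCl, 0.02% SDS, 1 mM DTT. Suc-LLVY-AMC (22.6 μM final) was then added for 4 h at RT in the dark. After stopping with 1 μM bortezomib, AMC fluorescence was read (ex 355/em 460 nm).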

[3] = tested on: A549 (human lung carcinoma cell line); assay: Glo assay of A549 cells (Table 3; ProteasomeGlo plating scheme); assay type: cell-based; settings: Homo sapiens; A549 cells; read-out: PGLo A549
In short: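 Cells plated in 384 wells; compound, DMSO, staurosporine transferred by ECHO; 105 min, 37° C., 5% CO2; Proteasome-Glo (Suc-LLVY-Glo) reagent added; dark 10-15 min; luminescence; IC50 nM.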

[4] = tested on: Hs 746T (human gastric carcinoma cell line); assay: 48 hr CTG viability assay, Hs 746T; assay type: cell-based; settings: Hs746T, 48 hr CTG, read-out: Hs 746T IC50
In short: (§1)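 Growth inhibition by compound over 48 h; IC50 (nM) derived from duplicate CellTiter-Glo luminescence readings across 0.0015–10 uM.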

[5] = tested on: MM1 S (B lymphoblast cell line); assay: 48 hr CTG viability assay, MM1S; assay type: cell-based; settings: Homo sapiens, 48 hr CTG, read-out: MM1S IC50
In short: as §1

[6] = tested on: RPMI 8226 (B lymphocyte cell line, multiple myeloma); assay: 48 hr CTG viability assay, RPMI 8226; assay type: cell-based; settings: Homo sapiens, RPMI-8226; 48 hr CTG; read-out: RPMI-8226 IC50
In short: as §1

Measured: IC50

Cc1ccc2cc1CNC(=O)[C@H](CCc1ccccc1)NC(=O)[C@@H](NC(=O)CCOCC1CCC1)CC(=O)N1CCCC(CCO2)C1 (stereo partly drawn) [Compound 628, 3-(cyclobutylmethoxy)-N-((9S,12S)-5^4-methyl-8,11,14-trioxo-9-phenethyl-4-oxa-7,10-diaza-1(3,1)-piperidina-5(1,3)-benzenacyclotetradecaphane-12-yl)propanamide]
< 100 nM: all assays above

Cc1ccc2cc1CNC(=O)[C@H](CCc1ccccc1)NC(=O)[C@@H](NC(=O)CCOC1CCCC1)CC(=O)N1CCCC(CCO2)C1 (stereo partly drawn) [Compound 629, 3-(cyclopentyloxy)-N-((9S,12S)-5^4-methyl-8,11,14-trioxo-9-phenethyl-4-oxa-7,10-diaza-1(3,1)-piperidina-5(1,3)-benzenacyclotetradecaphane-12-yl)propanamide]
< 100 nM: all assays above

Cc1ccc2cc1CNC(=O)[C@H](CCc1ccccc1)NC(=O)[C@@H](NC(=O)CCOCCC1CC1)CC(=O)N1CCCC(CCO2)C1 (stereo partly drawn) [Compound 630, 3-(2-cyclopropylethoxy)-N-((9S,12S)-5^4-methyl-8,11,14-trioxo-9-phenethyl-4-oxa-7,10-diaza-1(3,1)-piperidina-5(1,3)-benzenacyclotetradecaphane-12-yl)propanamide]
< 100 nM: all assays above

Cc1ccc2cc1CNC(=O)[C@H](CCc1ccccc1)NC(=O)[C@@H](NC(=O)C1CC3(CCC3)C1)CC(=O)N1CCCC(CCO2)C1 (stereo partly drawn) [Compound 631, N-((9S,12S)-5^4-methyl-8,11,14-trioxo-9-phenethyl-4-oxa-7,10-diaza-1(3,1)-piperidina-5(1,3)-benzenacyclotetradecaphane-12-yl)spiro[3.3]heptane-2-carboxamide]
< 100 nM: all assays above

Cc1ccc2cc1CNC(=O)[C@H](CCc1ccccc1)NC(=O)[C@@H](NC(=O)OC1CCCCC1)CC(=O)N1CCCC(CCO2)C1 (stereo partly drawn) [Compound 632, cyclohexyl ((9S,12S)-5^4-methyl-8,11,14-trioxo-9-phenethyl-4-oxa-7,10-diaza-1(3,1)-piperidina-5(1,3)-benzenacyclotetradecaphane-12-yl)carbamate]
< 100 nM: all assays above

Cc1ccc2cc1CNC(=O)[C@H](CCc1ccccc1)NC(=O)[C@@H](NC(=O)C13CC(F)(C1)C3)CC(=O)N1CCCC(CCO2)C1 (stereo partly drawn) [Compound 633, 3-fluoro-N-((9S,12S)-5^4-methyl-8,11,14-trioxo-9-phenethyl-4-oxa-7,10-diaza-1(3,1)-piperidina-5(1,3)-benzenacyclotetradecaphane-12-yl)bicyclo[1.1.1]pentane-1-carboxamide]
< 100 nM: all assays above

Cc1ccc2cc1CNC(=O)[C@H](CCc1ccccc1)NC(=O)[C@@H](NC(=O)CC1COC1)CC(=O)N1CCCC(CCO2)C1 (stereo partly drawn) [Compound 635, N-((9S,12S)-5^4-methyl-8,11,14-trioxo-9-phenethyl-4-oxa-7,10-diaza-1(3,1)-piperidina-5(1,3)-benzenacyclotetradecaphane-12-yl)-2-(oxetan-3-yl)acetamide]
< 100 nM: all assays above

Cc1ccc2cc1CNC(=O)[C@H](CCc1ccccc1)NC(=O)[C@@H](NS(=O)(=O)Cc1ccccc1F)CC(=O)N1CCCC(CCO2)C1 (stereo partly drawn) [Compound 636, 1-(2-fluorophenyl)-N-((9S,12S)-5^4-methyl-8,11,14-trioxo-9-phenethyl-4-oxa-7,10-diaza-1(3,1)-piperidina-5(1,3)-benzenacyclotetradecaphane-12-yl)methanesulfonamide]
< 100 nM: all assays above

COc1ccccc1CCCOCCC(=O)N[C@H]1CC(=O)N2CCCC(CCOc3ccc(C)c(c3)CNC(=O)[C@H](CCc3ccccc3)NC1=O)C2 (stereo partly drawn) [Compound 637, 3-(3-(2-methoxyphenyl)propoxy)-N-((9S,12S)-5^4-methyl-8,11,14-trioxo-9-phenethyl-4-oxa-7,10-diaza-1(3,1)-piperidina-5(1,3)-benzenacyclotetradecaphane-12-yl)propanamide]
< 100 nM: all assays above

Cc1ccc2cc1CNC(=O)[C@H](CCc1ccccc1)NC(=O)[C@@H](NC(=O)CCN1CCC3(CCC3)CC1)CC(=O)N1CCCC(CCO2)C1 (stereo partly drawn) [Compound 638, N-((9S,12S)-5^4-methyl-8,11,14-trioxo-9-phenethyl-4-oxa-7,10-diaza-1(3,1)-piperidina-5(1,3)-benzenacyclotetradecaphane-12-yl)-3-(7-azaspiro[3.5]nonan-7-yl)propanamide]
< 100 nM: all assays above

Cc1ccc2cc1CNC(=O)[C@H](CCc1ccccc1)NC(=O)[C@@H](NC(=O)CCN1CCC3(CCC3)C1)CC(=O)N1CCCC(CCO2)C1 (stereo partly drawn) [Compound 639, N-((9S,12S)-5^4-methyl-8,11,14-trioxo-9-phenethyl-4-oxa-7,10-diaza-1(3,1)-piperidina-5(1,3)-benzenacyclotetradecaphane-12-yl)-3-(6-azaspiro[3.4]octan-6-yl)propanamide]
< 100 nM: all assays above

Cc1ccc2cc1CNC(=O)[C@H](CCc1ccccc1)NC(=O)[C@@H](NC(=O)CCN1CCC3(CCOC3)C1)CC(=O)N1CCCC(CCO2)C1 (stereo partly drawn) [Compound 640, N-((9S,12S)-5^4-methyl-8,11,14-trioxo-9-phenethyl-4-oxa-7,10-diaza-1(3,1)-piperidina-5(1,3)-benzenacyclotetradecaphane-12-yl)-3-(2-oxa-7-azaspiro[4.4]nonan-7-yl)propanamide]
< 100 nM: all assays above

Cc1ccc2cc1CNC(=O)[C@H](CCc1ccccc1)NC(=O)[C@@H](NC(=O)CCN1CCC3(CC1)COC3)CC(=O)N1CCCC(CCO2)C1 (stereo partly drawn) [Compound 641, N-((9S,12S)-5^4-methyl-8,11,14-trioxo-9-phenethyl-4-oxa-7,10-diaza-1(3,1)-piperidina-5(1,3)-benzenacyclotetradecaphane-12-yl)-3-(2-oxa-7-azaspiro[3.5]nonan-7-yl)propanamide]
< 100 nM: all assays above

Cc1ccc2cc1CNC(=O)[C@H](CCc1ccccc1)NC(=O)[C@@H](NC(=O)CCO[C@H]1C[C@@H]3CC[C@H]1C3)CC(=O)N1CCCC(CCO2)C1 [Compound 642, 3-(((1S,2S,4R)-bicyclo[2.2.1]heptan-2-yl)oxy)-N-((9S,12S)-5^4-methyl-8,11,14-trioxo-9-phenethyl-4-oxa-7,10-diaza-1(3,1)-piperidina-5(1,3)-benzenacyclotetradecaphane-12-yl)propanamide]
< 100 nM: all assays above

Cc1ccc2cc1CNC(=O)[C@H](CCc1ccccc1)NC(=O)[C@@H](NC(=O)C1CCCCC1)CC(=O)N1CCCC(CCO2)C1 (stereo partly drawn) [Compound 643, N-((9S,12S)-5^4-methyl-8,11,14-trioxo-9-phenethyl-4-oxa-7,10-diaza-1(3,1)-piperidina-5(1,3)-benzenacyclotetradecaphane-12-yl)cyclohexanecarboxamide]
< 100 nM: all assays above
